Here are results for four compounds from publication PMC3914206.

Molecules are shown by their SMILES.

The target of test [1] is T1, panel of 442 kinases (Homo sapiens, UniProt P36888, N841I).
T1 construct: purchased KINOMEscan
T1 sequence (P36888 27-993 N841I): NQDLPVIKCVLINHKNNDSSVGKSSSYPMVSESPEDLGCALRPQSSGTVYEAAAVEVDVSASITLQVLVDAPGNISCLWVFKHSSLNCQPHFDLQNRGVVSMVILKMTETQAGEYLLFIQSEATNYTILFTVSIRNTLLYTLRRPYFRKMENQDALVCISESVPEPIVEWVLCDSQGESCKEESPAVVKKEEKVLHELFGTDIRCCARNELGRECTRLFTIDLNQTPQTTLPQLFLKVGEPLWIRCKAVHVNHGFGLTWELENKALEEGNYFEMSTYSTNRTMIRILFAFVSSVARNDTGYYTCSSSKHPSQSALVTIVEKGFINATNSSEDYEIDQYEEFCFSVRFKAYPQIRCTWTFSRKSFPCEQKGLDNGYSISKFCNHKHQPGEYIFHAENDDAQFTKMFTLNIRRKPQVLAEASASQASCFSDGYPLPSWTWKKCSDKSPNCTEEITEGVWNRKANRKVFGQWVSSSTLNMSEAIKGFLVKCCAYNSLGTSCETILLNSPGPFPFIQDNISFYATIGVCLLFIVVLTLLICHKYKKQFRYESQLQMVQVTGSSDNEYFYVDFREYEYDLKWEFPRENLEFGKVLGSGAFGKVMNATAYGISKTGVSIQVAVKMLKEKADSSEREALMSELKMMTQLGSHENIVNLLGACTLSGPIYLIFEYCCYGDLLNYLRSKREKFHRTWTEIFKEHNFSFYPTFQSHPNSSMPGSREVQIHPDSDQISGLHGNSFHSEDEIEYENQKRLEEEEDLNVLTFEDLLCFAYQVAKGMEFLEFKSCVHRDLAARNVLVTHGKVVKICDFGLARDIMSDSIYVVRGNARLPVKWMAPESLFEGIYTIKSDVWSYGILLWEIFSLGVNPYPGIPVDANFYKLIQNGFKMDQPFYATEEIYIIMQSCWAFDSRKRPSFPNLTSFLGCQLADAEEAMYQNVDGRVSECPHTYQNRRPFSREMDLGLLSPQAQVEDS
The class given is binding. The settings on record: Compound Concentration 10 µM. From the text:
(§1) We assessed the selectivity of members of this scaffold using the KINOMEscan methodology across a near comprehensive panel of 442 kinases [[18,27]].

Test [2] has as its target T2, panel of 442 kinases (Homo sapiens, UniProt O43353).
T2 construct: purchased KINOMEscan
The class given is binding. Conditions: Compound Concentration 10 µM.
Description: as §1

T2 sequence (O43353 whole entry): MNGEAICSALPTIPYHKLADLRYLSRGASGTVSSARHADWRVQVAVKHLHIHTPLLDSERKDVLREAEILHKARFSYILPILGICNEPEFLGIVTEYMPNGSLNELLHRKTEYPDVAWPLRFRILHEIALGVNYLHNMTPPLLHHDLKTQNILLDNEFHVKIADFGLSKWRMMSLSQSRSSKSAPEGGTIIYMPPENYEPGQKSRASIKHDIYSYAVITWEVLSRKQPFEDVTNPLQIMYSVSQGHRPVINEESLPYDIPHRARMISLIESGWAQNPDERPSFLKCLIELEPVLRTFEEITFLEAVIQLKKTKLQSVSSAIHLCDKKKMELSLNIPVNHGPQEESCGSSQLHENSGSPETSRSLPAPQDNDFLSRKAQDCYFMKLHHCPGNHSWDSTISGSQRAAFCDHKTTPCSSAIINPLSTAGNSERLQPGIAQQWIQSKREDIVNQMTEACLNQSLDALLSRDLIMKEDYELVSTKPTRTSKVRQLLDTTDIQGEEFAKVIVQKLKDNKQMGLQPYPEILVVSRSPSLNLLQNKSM

With `CCOc1cc(C(=O)N2CCC(N3CCN(C)CC3)CC2)ccc1Nc1ncc2c(n1)N(C1CCCC1)c1ccccc1C(=O)N2C` [Compound 26], the “KINOMEscan: FLT3(N841I)” value at panel of 442 kinases [1] was determined as 100. Also, the “KINOMEscan: RIPK2” value on panel of 442 kinases [2] turned out to be 100.

As to `COc1cc(C(=O)N2CCC(N3CCN(C)CC3)CC2)ccc1Nc1ncc2c(n1)N1CCc3cccc(c31)C(=O)N2C` [Compound 24], the “KINOMEscan: FLT3(N841I)” value at panel of 442 kinases [1] was 55. The “KINOMEscan: RIPK2” value on panel of 442 kinases [2] is recorded as 95.

`COc1cc(C(=O)N2CCC(N3CCN(C)CC3)CC2)ccc1Nc1ncc2c(n1)N(C)c1ccccc1C(=O)N2C` [15 (LRRK2-IN-1)]: on panel of 442 kinases [1], the “KINOMEscan: FLT3(N841I)” value came out at 73. At panel of 442 kinases [2], the “KINOMEscan: RIPK2” value stood at 100.

`COc1cc(C(=O)N2CCC(N3CCN(C)CC3)CC2)ccc1Nc1ncc2c(n1)N(C1CCCC1)c1ccccc1C(=O)N2C` [Compound 25, 11-cyclopentyl-2-((2-methoxy-4-(4-(4-methylpiperazin-1-yl)piperidine-1-carbonyl)phenyl)amino)-5-methyl-5H-benzo[e]pyrimido[5,4-b][1,4]diazepin-6(11H)-one]: the “KINOMEscan: FLT3(N841I)” value at panel of 442 kinases [1] was 90. Besides, the “KINOMEscan: RIPK2” value on panel of 442 kinases [2] is 87.
